Measured values reported in ChEMBL document CHEMBL5042514, “Picolylamine-functionalized benz[e]indole squaraine dyes: Synthetic approach, characterization and in vitro efficacy as potential anticancer phototherapeutic agents” (Eur J Med Chem, 2022).
Activity calls are given as the source filed them. The rule behind the calls is not given here.

Key:
[1] = Phototoxicity against human NHDF cells assessed as reduction in cell viability preincubated for 24 hrs followed by 7 mins of LED light irradiation by MTT assay; assay type: toxicity, cell-based
[2] = Dark toxicity against human HeLa cells assessed as reduction in cell viability incubated for 24 hrs by MTT assay; assay type: cell-based
[3] = Phototoxicity against human MCF7 cells assessed as reduction in cell viability preincubated for 24 hrs followed by 7 mins of LED light irradiation by MTT assay; assay type: toxicity, cell-based; details: MCF7, light or radiation study
[4] = Phototoxicity ratio of IC50 for cytotoxicity against human MCF7 cells assessed as reduction in cell viability in dark to IC50 for phototoxicity against human MCF7 cells upon LED light irradiation; assay type: toxicity, cell-based
[5] = Phototoxicity against human Caco-2 cells assessed as reduction in cell viability preincubated for 24 hrs followed by 7 mins of LED light irradiation by MTT assay; assay type: toxicity, cell-based; details: Caco-2, light or radiation study
[6] = Selectivity ratio of IC50 for phototoxicity against human NHDF cells upon LED light irradiation to IC50 for phototoxicity against human MCF7 cells upon LED light irradiation; assay type: toxicity, cell-based; details: NHDF cells versus MCF7 cells, read-out: Ratio IC50
[7] = Dark toxicity against human PC-3 cells assessed as reduction in cell viability incubated for 24 hrs by MTT assay; assay type: cell-based
[8] = Selectivity ratio of IC50 for phototoxicity against human NHDF cells upon LED light irradiation to IC50 for phototoxicity against human HeLa cells upon LED light irradiation; assay type: toxicity, cell-based; details: NHDF cells versus HeLa cells, read-out: Ratio IC50
[9] = Dark toxicity against human Caco-2 cells assessed as reduction in cell viability incubated for 24 hrs by MTT assay; assay type: cell-based
[10] = Dark toxicity against human MCF7 cells assessed as reduction in cell viability incubated for 24 hrs by MTT assay; assay type: cell-based
[11] = Phototoxicity ratio of IC50 for cytotoxicity against human HeLa cells assessed as reduction in cell viability in dark to IC50 for phototoxicity against human HeLa cells upon LED light irradiation; assay type: toxicity, cell-based
[12] = Dark toxicity against human NHDF cells assessed as reduction in cell viability incubated for 24 hrs by MTT assay; assay type: cell-based
[13] = Phototoxicity against human HeLa cells assessed as reduction in cell viability preincubated for 24 hrs followed by 7 mins of LED light irradiation by MTT assay; assay type: toxicity, cell-based; details: light or radiation study
[14] = biological target: Albumin (Homo sapiens, UniProt P02768); assay: Binding affinity to human serum albumin assessed as binding constant by fluorescence based assay
[15] = Selectivity ratio of IC50 for phototoxicity against human NHDF cells upon LED light irradiation to IC50 for phototoxicity against human Caco-2 cells upon LED light irradiation; assay type: toxicity, cell-based; details: NHDF cells versus Caco-2 cells, read-out: Ratio IC50
[16] = Phototoxicity ratio of IC50 for cytotoxicity against human Caco-2 cells assessed as reduction in cell viability in dark to IC50 for phototoxicity against human Caco-2 cells upon LED light irradiation; assay type: toxicity, cell-based
[17] = Phototoxicity ratio of IC50 for cytotoxicity against human NHDF cells assessed as reduction in cell viability in dark to IC50 for phototoxicity against human NHDF cells upon LED light irradiation; assay type: toxicity, cell-based; details: read-out: Ratio IC50
[18] = Phototoxicity ratio of IC50 for cytotoxicity against human PC-3 cells assessed as reduction in cell viability in dark to IC50 for phototoxicity against human PC-3 cells upon LED light irradiation; assay type: toxicity, cell-based
[19] = Phototoxicity against human PC-3 cells assessed as reduction in cell viability preincubated for 24 hrs followed by 7 mins of LED light irradiation by MTT assay; assay type: toxicity, cell-based; details: PC-3, light or radiation study
[20] = Selectivity ratio of IC50 for phototoxicity against human NHDF cells upon LED light irradiation to IC50 for phototoxicity against human PC-3 cells upon LED light irradiation; assay type: toxicity, cell-based; details: NHDF cells versus PC-3 cells, read-out: Ratio IC50
[21] = test system: HeLa; assay: Induction of cell cycle arrest in human HeLa cells assessed as accumulation of hypodiploid cells in sub-G1 phase at 0.24 to 1 uM measured after 24 hrs in the absence of light by PI staining based flow cytometry analysis; assay type: functional; details: dose 0.24-1 µM
[22] = test system: HeLa; assay: Induction of morphological change in human HeLa cells assessed as plasma membrane rupture at 1 uM preincubated for 24 hrs followed by 7 mins of LED light irradiation and measured upto 48 hrs by microscopic analysis; assay type: functional; details: time min <=4327
[23] = test system: HeLa; assay: Induction of cell cycle arrest in human HeLa cells assessed as accumulation in G2/M phase at 0.25 uM by PI staining based flow cytometry analysis (reference value: 4.79 %); assay type: functional
[24] = test system: HeLa; assay: Induction of cell cycle arrest in human HeLa cells assessed as accumulation in G0/G1 phase at 1 uM by PI staining based flow cytometry analysis (reference value: 67.03 %); assay type: functional
[25] = test system: HeLa; assay: Induction of morphological change in human HeLa cells assessed as rounded cell morphology at 0.25 uM preincubated for 24 hrs followed by 7 mins of LED light irradiation and measured upto 48 hrs by microscopic analysis; assay type: functional, cell-based; details: time min <=4327
[26] = test system: HeLa; assay: Induction of morphological change in human HeLa cells assessed as reduction in adhesion at 0.25 uM preincubated for 24 hrs followed by 7 mins of LED light irradiation and measured upto 48 hrs by microscopic analysis; assay type: functional, cell-based; details: time min <=4327
[27] = Drug localization in lysosome of human HeLa cells at 1 uM incubated for 24 hrs by Green Fluorescent Protein based confocal laser scanning microscopy analysis; assay type: ADME, subcellular
[28] = test system: HeLa; assay: Induction of morphological change in human HeLa cells assessed as intracellular space dilation at 1 uM preincubated for 24 hrs followed by 7 mins of LED light irradiation and measured upto 48 hrs by microscopic analysis; assay type: functional, cell-based; details: time min <=4327
[29] = test system: HeLa; assay: Induction of cell cycle arrest in human HeLa cells assessed as accumulation in G0/G1 phase at 0.25 uM with red light radiation for 7 mins by PI staining based flow cytometry analysis (reference value: 63.18%); assay type: functional
[30] = test system: HeLa; assay: Induction of morphological change in human HeLa cells assessed as cell shrinkage at 0.25 uM preincubated for 24 hrs followed by 7 mins of LED light irradiation and measured upto 48 hrs by microscopic analysis; assay type: functional, cell-based; details: time min <=4327
[31] = Drug localization in mitochondria of human HeLa cells at 1 uM incubated for 24 hrs by Rhodamine 123 based confocal laser scanning microscopy analysis; assay type: ADME
[32] = test system: HeLa; assay: Induction of cell cycle arrest in human HeLa cells assessed as accumulation of hypodiploid cells in sub-G1 phase at 0.25 to 1 uM measured after 24 hrs in the absence of light by PI staining based flow cytometry analysis; assay type: functional; details: dose 0.25-1 µM
[33] = test system: HeLa; assay: Induction of apoptosis in human HeLa cells assessed as increase in DNA cleavage at 1 uM preincubated for 24 hrs followed by 7 mins LED light irradiation and measured after 24 hrs by PI staining based flow cytometry analysis; assay type: functional; details: time 2887 min, 48.12 h
[34] = test system: HeLa; assay: Induction of cell cycle arrest in human HeLa cells assessed as accumulation in G2/M phase at 1 uM by PI staining based flow cytometry analysis (reference value: 4.79 %); assay type: functional
[35] = test system: HeLa; assay: Induction of cell cycle arrest in human HeLa cells assessed as accumulation in S phase at 0.25 uM by PI staining based flow cytometry analysis (reference value: 32.14 %); assay type: functional
[36] = test system: HeLa; assay: Induction of apoptosis in human HeLa cells at 0.25 uM preincubated for 24 hrs followed by 7 mins LED light irradiation and measured after 24 hrs by PI staining based flow cytometry analysis; assay type: functional; details: time 2887 min, 48.12 h
[37] = test system: HeLa; assay: Induction of cell cycle arrest in human HeLa cells assessed as accumulation in G0/G1 phase at 0.25 uM by PI staining based flow cytometry analysis (reference value: 67.03 %); assay type: functional
[38] = test system: HeLa; assay: Induction of cell cycle arrest in human HeLa cells assessed as accumulation in G2/M phase at 0.25 uM with red light radiation for 7 mins by PI staining based flow cytometry analysis (reference value: 4.73 %); assay type: functional
[39] = test system: HeLa; assay: Induction of cell cycle arrest in human HeLa cells assessed as accumulation in S phase at 0.25 uM with red light radiation for 7 mins by PI staining based flow cytometry analysis (reference value: 32.09 %); assay type: functional
[40] = test system: HeLa; assay: Induction of cell cycle arrest in human HeLa cells assessed as accumulation in S phase at 1 uM by PI staining based flow cytometry analysis (reference value: 32.14 %); assay type: functional

Albumin, sequence (P02768 whole entry): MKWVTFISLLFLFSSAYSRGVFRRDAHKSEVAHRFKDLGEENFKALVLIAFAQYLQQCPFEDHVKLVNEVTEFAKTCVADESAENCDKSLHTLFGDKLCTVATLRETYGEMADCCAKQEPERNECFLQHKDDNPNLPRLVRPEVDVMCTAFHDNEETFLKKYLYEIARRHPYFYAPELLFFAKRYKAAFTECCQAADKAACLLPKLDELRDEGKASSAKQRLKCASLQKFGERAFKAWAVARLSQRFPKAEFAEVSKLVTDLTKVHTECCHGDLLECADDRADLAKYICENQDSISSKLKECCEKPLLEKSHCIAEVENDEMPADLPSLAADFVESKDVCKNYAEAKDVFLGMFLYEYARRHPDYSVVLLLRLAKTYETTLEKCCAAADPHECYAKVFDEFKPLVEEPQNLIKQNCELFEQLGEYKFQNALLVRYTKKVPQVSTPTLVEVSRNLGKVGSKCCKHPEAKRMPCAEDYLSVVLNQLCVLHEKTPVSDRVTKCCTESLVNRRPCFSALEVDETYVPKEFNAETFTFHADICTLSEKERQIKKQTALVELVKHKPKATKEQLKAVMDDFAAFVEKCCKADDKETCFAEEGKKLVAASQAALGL

CCN1/C(=C/C2=C(N(Cc3ccccn3)Cc3ccccn3)C(=C/C3=[N+](CC)c4ccc5ccccc5c4C3(C)C)/C2=O)C(C)(C)c2c1ccc1ccccc21.[I-]
IC50 at 24 h [1]: 184 nM | IC50 at 24 h [2]: 449 nM | IC50 [3]: 150 nM | Ratio IC50 [4]: 3.6 | IC50 [5]: 92 nM | selectivity ratio [6]: 1.23 | IC50 at 24 h [7]: 393 nM | selectivity ratio [8]: 1.63 | IC50 at 24 h [9]: 328 nM | IC50 at 24 h [10]: 534 nM | Ratio IC50 [11]: 4 | IC50 at 24 h [12]: 484 nM | IC50 [13]: 113 nM | Kb [14]: 5.92 10^5/M | selectivity ratio [15]: 2 | Ratio IC50 [16]: 3.6 | selectivity ratio [17]: 2.6 | Ratio IC50 [18]: 2.7 | IC50 [19]: 148 nM

CCCCCCN1/C(=C/C2=C(NCc3ccccn3)C(=C/C3=[N+](CCCCCC)c4ccc5ccccc5c4C3(C)C)/C2=O)C(C)(C)c2c1ccc1ccccc21.[I-]
IC50 at 24 h [1]: 1280 nM | IC50 at 24 h [2]: 4780 nM | IC50 [3]: 2290 nM | Ratio IC50 [4]: 1.4 | IC50 [5]: 4820 nM | selectivity ratio [6]: 0.56 | IC50 at 24 h [7]: 6690 nM | selectivity ratio [8]: 0.49 | selectivity ratio [20]: 0.84 | IC50 at 24 h [9]: > 10000 nM | IC50 at 24 h [10]: 3100 nM | Ratio IC50 [11]: 1.9 | IC50 at 24 h [12]: 4300 nM | IC50 [13]: 2580 nM | Activity [21]: 1% | Kb [14]: 1.64 10^5/M | selectivity ratio [15]: 0.26 | Ratio IC50 [16]: > 2.1 | selectivity ratio [17]: 3.4 | Ratio IC50 [18]: 1.3 | IC50 [19]: 1530 nM

CCN1/C(=C/C2=C([O-])C(=C/C3=[N+](CC)c4ccc5ccccc5c4C3(C)C)/C2=O)C(C)(C)c2c1ccc1ccccc21
Activity [22]: Active | Activity [23]: 5.19% | IC50 at 24 h [1]: 222 nM | IC50 at 24 h [2]: > 10000 nM | IC50 [3]: 232 nM | Ratio IC50 [4]: > 43.1 | Activity [24]: 70.47% | IC50 [5]: 332 nM | selectivity ratio [6]: 0.96 | Activity [25]: Active | IC50 at 24 h [7]: > 10000 nM | Activity [26]: Active | selectivity ratio [8]: 0.91 | Drug uptake [27]: Not Active | Activity [28]: Active | selectivity ratio [20]: 1.17 | IC50 at 24 h [9]: > 10000 nM | IC50 at 24 h [10]: > 10000 nM | Ratio IC50 [11]: > 40.8 | IC50 at 24 h [12]: > 10000 nM | Activity [29]: 58.79% | IC50 [13]: 245 nM | Activity [30]: Active | Drug uptake [31]: Active | Activity [32]: 1% | Activity [33]: 98% | Kb [14]: 2.01 10^5/M | Activity [34]: 3.61% | selectivity ratio [15]: 0.67 | Activity [35]: 25.84% | Activity [36]: 17% | Activity [37]: 68.96% | Ratio IC50 [16]: > 30.1 | Activity [38]: 9.71% | selectivity ratio [17]: > 45 | Ratio IC50 [18]: > 52.6 | IC50 [19]: 190 nM | Activity [39]: 31.5% | Activity [40]: 25.92%

CCCCCCN1/C(=C/C2=C(N(Cc3ccccn3)Cc3ccccn3)C(=C/C3=[N+](CCCCCC)c4ccc5ccccc5c4C3(C)C)/C2=O)C(C)(C)c2c1ccc1ccccc21.[I-]
IC50 at 24 h [1]: 695 nM | IC50 at 24 h [2]: 1740 nM | IC50 [3]: 1190 nM | Ratio IC50 [4]: 1.3 | IC50 [5]: 2130 nM | selectivity ratio [6]: 0.59 | IC50 at 24 h [7]: 1110 nM | selectivity ratio [8]: 0.59 | selectivity ratio [20]: 0.72 | IC50 at 24 h [9]: 2490 nM | IC50 at 24 h [10]: 1520 nM | Ratio IC50 [11]: 1.5 | IC50 at 24 h [12]: 1010 nM | IC50 [13]: 1170 nM | Kb [14]: 7.68 10^5/M | selectivity ratio [15]: 0.33 | Ratio IC50 [16]: 1.2 | selectivity ratio [17]: 1.4 | Ratio IC50 [18]: 1.1 | IC50 [19]: 967 nM
